Reference: US20260347387A1, “Lipid-Gold Salt Molecules and Formulation in Lipid Nanoparticle Delivery Systems” (NORTHWESTERN UNIVERSITY, priority 2023, published 2026)

System: TOV-21G ovarian cancer cells
Test: Cell viability assay, TOV-21G clear cell ovarian cancer cells
Format: cell-based
Conditions: Table C, FIGS. 24, 25
Description: In vitro cellular viability assay. ES-2 (2,500 cells/well), 786-0 ccRCCa (400 cells/well), Ramos (16,000 cells/well), SUDHL4 (16,000 cells/well), Jurkat (16,000 cells/well), CWR-R1 (1,000 cells/well), LNCaP (2,000 cells/well), and 22rv1 (2,000 cells/well) were plated into 96 well plates. Adherent ES-2, CWR-R1, LNCaP, 22rv1, and 786-0 cells were incubated for 24 h. Media in the wells was then replaced with pre-prepared media containing the appropriate drug formulations at the appropriate drug concentration. Ramos, SUDHL4, and Jurkat cells are suspension cell lines and were plated and treated on the same day. After 72 h, cell viability was measured via an MTS cell-proliferation assay (CellTiter 96 Aqueous One, Promega; Madison, WI) and the relative cell-survival percentages compared to the vehicle control were plotted against the concentration of either the AuNP or the oc-HDL NPs in logarithmic scale. The data reported represent an average of three measurements.
Addition of gold salts to HDL-NPs disclosed herein decreased cell viability more than the addition of gold salts to oc-HDL NPs disclosed herein in a clear cell ovarian cancer model (TOV-21Gcell line). Cells were treated with gold-bearing HDL-NPs or gold salts as disclosed herein in an assay described in the Materials and protocols for in vitro studies section above.

For CCP(CC)CC.[Au+].[Cl-] [Et3PAuCl, Chloro(triethylphosphine)gold(I)], the IC50 was 9.74 nM.
